The conditions of data set [1]: control compound, 5 μM; cited from earlier work.
For data set [2] the following is noted: PBS pH 7.4, 24 hours, 37° C.; cited from earlier work.
The test system of another data set is lupus disease model mice. To be noted: B6.Slelz.Sle3z model; cited from earlier work.
The target in a further data set is p110α/p85α (Homo sapiens (Human), UniProt P42336). The experiment in a line: PI3K α inhibition assay (TLC lipid kinase or HTRF). The class given is biochemical. A digest of the protocol:
(§1)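 IC50 from TLC lipid kinase assay (25 mM HEPES pH 7.4, 10 mM MgCl2, 100 μg/ml phosphatidylinositol, 10 or 100 μM γ-32P-ATP, 5 min RT, phosphorimager) at 10–12 two-fold dilutions, or HTRF (10 μM PIP2, 10 μM ATP, 1 h RT) measuring PIP3 by TR-FRET; 2% DMSO final.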

The target of the next data set is p110δ/p85α (Homo sapiens (Human), UniProt O00329). The experiment in a line: PI3K δ inhibition assay (TLC lipid kinase or HTRF). The class given is biochemical. A digest of the protocol:
as §1

For the next data set, the target named is p110γ (Homo sapiens (Human), UniProt P48736). The experiment in a line: PI3K γ inhibition assay (TLC lipid kinase or HTRF). The class given is biochemical. A digest of the protocol:
as §1

For the next data set, the target named is p110β/p85α (Homo sapiens, UniProt P42338). In words: PI3K β inhibition assay (TLC lipid kinase or HTRF). The class given is biochemical. The settings on record: read-out: PI3K β IC50. A digest of the protocol: as §1
For another data set, the system named is Balb/c splenic B cells. In words: B cell activation and proliferation assay (Alamar Blue). To be noted: Mus musculus, B-cell. The class given is cell-based, mouse. A digest of the protocol: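 Purified Balb/c splenic B cells, 50,000/well, pretreated with compound 30 min (0.2% DMSO), then stimulated with 10 ug/ml LPS or 5 ug/ml anti-IgM F(ab′)2 plus 2 ng/ml IL4 (cocktail concentrations) for 72 h at 37 °C. Alamar Blue 5 h, fluorescence 560/590 nm; IC50/EC50 calculated.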

The next data set has as its system PI3K/Akt/mTor signaling. The experiment in a line: Kinase signaling in blood (phosflow). The class given is cell-based. The settings on record: anti-CD3 stimulated splenocytes or PBMC. Here is the method: PI3K/Akt/mTor signaling is measured in blood cells using the phosflow method (Methods Enzymol. 2007; 434:131-54). The advantage of this method is that it is by nature a single cell assay so that cellular heterogeneity can be detected rather than population averages. This allows concurrent distinction of signaling states in different populations defined by other markers. Phosflow is also highly quantitative. To test the effects of one or more compounds disclosed herein, unfractionated splenocytes, or peripheral blood mononuclear cells are stimulated with anti-CD3 to initiate T-cell receptor signaling. The cells are then fixed and stained for surface markers and intracellular phosphoproteins.
Similarly, aliquots of whole blood are incubated for 15 minutes with vehicle (e.g. 0.1% DMSO) or kinase inhibitors at various concentrations, before addition of stimuli to crosslink the T cell receptor (TCR) (anti-CD3 with secondary antibody) or the B cell receptor (BCR) using anti-kappa light chain antibody (Fab′2 fragments). After approximately 5 and 15 minutes, samples are fixed (e.g. with cold 4% paraformaldehyde) and used for phosflow. […] The level of phosphrylation of kinase substrates such as Akt and S6 are then measured by incubating the fixed cells with labeled antibodies specific to the phosphorylated isoforms of these proteins. The population of cells are then analyzed by flow cytometry.

These results are taken from US9790228B2, “Heterocyclic kinase inhibitors” (Intellikine LLC, priority 2008, dated 2017).

p110α/p85α, sequence (P42336 whole entry): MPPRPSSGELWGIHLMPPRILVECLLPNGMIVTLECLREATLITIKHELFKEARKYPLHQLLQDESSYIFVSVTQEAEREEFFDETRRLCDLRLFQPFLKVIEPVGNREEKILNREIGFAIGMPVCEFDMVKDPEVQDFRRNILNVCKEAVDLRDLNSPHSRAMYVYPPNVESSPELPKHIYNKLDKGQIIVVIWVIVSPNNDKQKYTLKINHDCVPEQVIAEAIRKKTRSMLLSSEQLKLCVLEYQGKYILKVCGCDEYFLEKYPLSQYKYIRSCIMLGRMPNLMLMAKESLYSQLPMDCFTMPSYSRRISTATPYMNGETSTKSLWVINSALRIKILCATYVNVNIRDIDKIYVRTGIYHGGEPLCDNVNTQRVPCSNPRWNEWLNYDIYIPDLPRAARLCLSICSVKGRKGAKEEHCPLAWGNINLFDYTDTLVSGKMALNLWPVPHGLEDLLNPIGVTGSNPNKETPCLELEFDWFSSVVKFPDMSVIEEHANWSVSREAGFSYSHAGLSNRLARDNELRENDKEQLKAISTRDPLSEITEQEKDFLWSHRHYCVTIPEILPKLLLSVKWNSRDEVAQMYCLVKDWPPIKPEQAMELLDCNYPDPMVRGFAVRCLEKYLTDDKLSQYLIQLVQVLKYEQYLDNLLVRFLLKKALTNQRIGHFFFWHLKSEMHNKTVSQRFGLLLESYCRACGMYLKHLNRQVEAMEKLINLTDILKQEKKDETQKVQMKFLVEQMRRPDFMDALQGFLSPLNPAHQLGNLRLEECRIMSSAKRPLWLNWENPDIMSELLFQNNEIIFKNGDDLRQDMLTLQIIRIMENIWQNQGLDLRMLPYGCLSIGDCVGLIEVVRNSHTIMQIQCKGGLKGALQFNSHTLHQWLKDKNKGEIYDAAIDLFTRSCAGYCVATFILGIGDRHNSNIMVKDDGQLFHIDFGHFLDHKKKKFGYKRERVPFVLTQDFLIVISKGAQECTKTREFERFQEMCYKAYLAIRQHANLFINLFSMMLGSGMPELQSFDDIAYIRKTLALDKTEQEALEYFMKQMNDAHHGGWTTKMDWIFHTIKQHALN
p110α/p85α, sequence (P27986 whole entry partner): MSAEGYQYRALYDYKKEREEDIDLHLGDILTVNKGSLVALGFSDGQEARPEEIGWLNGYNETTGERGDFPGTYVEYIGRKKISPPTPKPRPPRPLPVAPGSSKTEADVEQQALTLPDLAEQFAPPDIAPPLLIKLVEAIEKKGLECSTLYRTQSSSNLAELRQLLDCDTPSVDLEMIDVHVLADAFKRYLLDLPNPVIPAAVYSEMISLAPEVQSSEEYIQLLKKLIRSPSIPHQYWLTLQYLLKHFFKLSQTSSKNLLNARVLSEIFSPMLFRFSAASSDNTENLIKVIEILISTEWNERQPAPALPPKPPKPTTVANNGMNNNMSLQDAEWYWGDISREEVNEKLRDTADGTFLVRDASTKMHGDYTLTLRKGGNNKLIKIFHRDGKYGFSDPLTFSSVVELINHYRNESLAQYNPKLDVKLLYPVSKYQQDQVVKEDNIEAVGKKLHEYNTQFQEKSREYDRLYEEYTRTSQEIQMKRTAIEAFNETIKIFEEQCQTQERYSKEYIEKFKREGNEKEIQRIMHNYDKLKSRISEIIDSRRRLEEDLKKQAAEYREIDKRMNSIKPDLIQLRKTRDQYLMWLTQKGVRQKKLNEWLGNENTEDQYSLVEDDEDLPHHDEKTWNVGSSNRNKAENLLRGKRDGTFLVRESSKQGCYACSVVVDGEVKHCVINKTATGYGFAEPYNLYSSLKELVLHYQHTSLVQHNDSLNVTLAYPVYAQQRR
p110γ, sequence (P48736 whole entry): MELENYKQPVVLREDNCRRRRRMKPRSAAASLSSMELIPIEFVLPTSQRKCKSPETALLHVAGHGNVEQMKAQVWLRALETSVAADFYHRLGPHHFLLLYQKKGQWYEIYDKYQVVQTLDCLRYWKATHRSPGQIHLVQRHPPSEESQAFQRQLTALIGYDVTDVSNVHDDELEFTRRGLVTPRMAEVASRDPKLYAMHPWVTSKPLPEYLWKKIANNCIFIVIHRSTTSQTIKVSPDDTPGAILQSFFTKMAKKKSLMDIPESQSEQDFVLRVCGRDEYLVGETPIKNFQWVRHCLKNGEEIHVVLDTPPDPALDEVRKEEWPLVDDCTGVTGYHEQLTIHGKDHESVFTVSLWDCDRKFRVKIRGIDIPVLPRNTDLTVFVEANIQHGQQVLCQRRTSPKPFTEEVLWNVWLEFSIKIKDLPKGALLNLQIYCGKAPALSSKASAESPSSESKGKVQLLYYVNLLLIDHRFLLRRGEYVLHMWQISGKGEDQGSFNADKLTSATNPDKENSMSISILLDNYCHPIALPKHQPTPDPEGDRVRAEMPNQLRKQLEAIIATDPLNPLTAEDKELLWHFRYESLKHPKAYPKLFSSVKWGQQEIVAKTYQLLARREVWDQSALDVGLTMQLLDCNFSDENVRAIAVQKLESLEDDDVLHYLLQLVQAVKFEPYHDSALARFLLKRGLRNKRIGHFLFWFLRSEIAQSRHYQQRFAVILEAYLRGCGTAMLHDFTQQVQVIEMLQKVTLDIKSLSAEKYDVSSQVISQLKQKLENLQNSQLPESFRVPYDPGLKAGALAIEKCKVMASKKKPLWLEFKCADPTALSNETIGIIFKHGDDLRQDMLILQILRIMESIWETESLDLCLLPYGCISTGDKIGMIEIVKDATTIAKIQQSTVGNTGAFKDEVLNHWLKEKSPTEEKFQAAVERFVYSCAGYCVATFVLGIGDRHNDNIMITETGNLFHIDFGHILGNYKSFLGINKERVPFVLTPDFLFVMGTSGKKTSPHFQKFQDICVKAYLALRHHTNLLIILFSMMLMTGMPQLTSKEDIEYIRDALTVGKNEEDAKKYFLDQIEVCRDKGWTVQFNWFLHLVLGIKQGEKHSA
p110δ/p85α, sequence (O00329 whole entry): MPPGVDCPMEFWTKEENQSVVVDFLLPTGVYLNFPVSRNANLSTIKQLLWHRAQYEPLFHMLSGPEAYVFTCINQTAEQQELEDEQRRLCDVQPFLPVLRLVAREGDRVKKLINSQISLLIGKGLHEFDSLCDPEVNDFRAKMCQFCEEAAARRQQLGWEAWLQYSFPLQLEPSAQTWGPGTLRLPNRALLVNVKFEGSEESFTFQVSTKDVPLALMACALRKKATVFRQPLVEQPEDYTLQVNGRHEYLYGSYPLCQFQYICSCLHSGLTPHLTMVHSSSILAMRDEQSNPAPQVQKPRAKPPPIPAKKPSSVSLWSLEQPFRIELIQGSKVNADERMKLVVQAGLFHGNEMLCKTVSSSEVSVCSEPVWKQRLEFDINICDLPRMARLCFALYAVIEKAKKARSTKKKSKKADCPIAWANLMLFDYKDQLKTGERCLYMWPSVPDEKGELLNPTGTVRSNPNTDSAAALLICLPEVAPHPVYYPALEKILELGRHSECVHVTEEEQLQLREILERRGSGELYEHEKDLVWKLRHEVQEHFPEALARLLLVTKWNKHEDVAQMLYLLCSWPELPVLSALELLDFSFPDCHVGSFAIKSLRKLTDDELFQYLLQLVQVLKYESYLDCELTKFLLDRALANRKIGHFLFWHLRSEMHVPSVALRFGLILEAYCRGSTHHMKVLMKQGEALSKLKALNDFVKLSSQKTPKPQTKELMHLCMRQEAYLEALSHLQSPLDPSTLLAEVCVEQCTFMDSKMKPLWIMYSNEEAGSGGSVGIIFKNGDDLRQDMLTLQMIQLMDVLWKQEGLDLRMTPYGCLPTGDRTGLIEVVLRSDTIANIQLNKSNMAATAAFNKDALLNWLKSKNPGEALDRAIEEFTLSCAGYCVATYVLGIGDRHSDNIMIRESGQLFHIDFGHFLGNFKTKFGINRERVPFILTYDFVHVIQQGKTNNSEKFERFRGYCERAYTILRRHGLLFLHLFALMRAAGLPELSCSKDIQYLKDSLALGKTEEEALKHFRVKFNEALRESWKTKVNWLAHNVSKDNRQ
p110δ/p85α, sequence (P27986 whole entry partner): as the sequence (P27986 whole entry partner) above
p110β/p85α, sequence (P42338 whole entry, looked up): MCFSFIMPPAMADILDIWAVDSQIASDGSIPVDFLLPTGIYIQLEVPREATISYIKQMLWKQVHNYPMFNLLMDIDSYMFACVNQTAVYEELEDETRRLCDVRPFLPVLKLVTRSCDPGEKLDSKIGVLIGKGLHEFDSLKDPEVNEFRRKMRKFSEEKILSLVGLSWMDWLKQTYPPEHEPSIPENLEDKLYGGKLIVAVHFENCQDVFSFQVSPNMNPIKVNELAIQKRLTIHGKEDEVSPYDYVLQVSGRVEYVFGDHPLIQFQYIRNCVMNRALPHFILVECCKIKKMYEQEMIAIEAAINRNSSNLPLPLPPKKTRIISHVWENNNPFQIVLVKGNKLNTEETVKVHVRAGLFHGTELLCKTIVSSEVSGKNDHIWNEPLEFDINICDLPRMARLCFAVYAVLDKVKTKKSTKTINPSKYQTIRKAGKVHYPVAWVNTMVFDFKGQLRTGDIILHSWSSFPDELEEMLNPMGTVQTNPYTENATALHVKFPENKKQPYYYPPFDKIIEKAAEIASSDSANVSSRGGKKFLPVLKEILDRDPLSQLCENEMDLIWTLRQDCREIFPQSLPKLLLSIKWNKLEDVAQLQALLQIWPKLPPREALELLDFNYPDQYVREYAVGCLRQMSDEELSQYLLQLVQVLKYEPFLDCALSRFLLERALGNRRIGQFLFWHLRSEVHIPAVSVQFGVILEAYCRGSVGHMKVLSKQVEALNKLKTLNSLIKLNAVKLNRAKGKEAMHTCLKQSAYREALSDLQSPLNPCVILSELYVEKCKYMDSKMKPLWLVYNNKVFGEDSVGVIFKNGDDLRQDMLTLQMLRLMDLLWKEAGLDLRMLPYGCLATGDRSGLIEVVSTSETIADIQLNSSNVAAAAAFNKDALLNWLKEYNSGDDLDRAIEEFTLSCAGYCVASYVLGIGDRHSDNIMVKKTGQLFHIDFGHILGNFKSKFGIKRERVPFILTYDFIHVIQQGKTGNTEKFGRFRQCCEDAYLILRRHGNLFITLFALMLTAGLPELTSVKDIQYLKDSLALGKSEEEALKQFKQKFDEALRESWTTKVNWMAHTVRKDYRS

As to `CCCOc1cc(N)ccc1C(=O)OCCN(CC)CC` [propoxycaine], the plasma stability result in [1] is “low”.

As to `O=C(O)CCCc1ccc(N(CCCl)CCCl)cc1` [chlorambucil], in [2], the chemical stability entry was “largely hydrolyzed”.

Take `CO[C@H]1C[C@@H]2CC[C@@H](C)[C@@](O)(O2)C(=O)C(=O)N2CCCC[C@H]2C(=O)O[C@H]([C@H](C)C[C@@H]2CC[C@@H](OCCO)[C@H](OC)C2)CC(=O)[C@H](C)/C=C(\C)[C@@H](O)[C@@H](OC)C(=O)[C@H](C)C[C@H](C)/C=C/C=C/C=C/1C` [RAD001]: the lupus symptoms entry in the data set with lupus disease model mice was “ameliorate lupus symptoms”.

As to `CC(C)[N+](C)(CCOC(=O)C1c2ccccc2Oc2ccccc21)C(C)C` [propantheline], the plasma stability result in data set [1] was “intermediate”.

In the case of `Cc1ccncc1-c1nc2ccccc2cc1Cn1nc(-c2cccc(O)c2)c2c(N)ncnc21` [Compound 78], the IC50 at p110α/p85α was more than 1 µM; against p110δ/p85α it was less than 0.1 µM; on p110γ it was more than 1 µM; on p110β/p85α it was more than 1 µM. Besides, in the data set with Balb/c splenic B cells, the EC50 fell in the range of 0.1 to 1 µM.

Take `CO[C@H]1C[C@@H]2CC[C@@H](C)[C@@](O)(O2)C(=O)C(=O)N2CCCC[C@H]2C(=O)O[C@H]([C@H](C)C[C@@H]2CC[C@@H](O)[C@H](OC)C2)CC(=O)[C@H](C)/C=C(\C)[C@@H](O)[C@@H](OC)C(=O)[C@H](C)C[C@H](C)/C=C/C=C/C=C/1C` [rapamycin]: in the data set on PI3K/Akt/mTor signaling, the Akt phosphorylation entry is listed as “enhances Akt phosphorylation” and the S6 phosphorylation entry is listed as “inhibits S6 phosphorylation”.

As for `Nc1ncnc2ccc(-c3nn(Cc4cc5ccccc5nc4N4CCOCC4)c4ncnc(N)c34)cc12` [Compound 142], the IC50 at p110α/p85α was 0.1 to 1 µM; at p110δ/p85α it was less than 0.1 µM; on p110γ, less than 0.1 µM; on p110β/p85α, more than 1 µM. The EC50 with Balb/c splenic B cells is less than 0.1 µM.

In the case of `Nc1ccc2cc(-c3nn(Cc4cc5ccccc5nc4N4CCOCC4)c4ncnc(N)c34)ccc2n1` [Compound 140], the IC50 was less than 0.1 µM at p110α/p85α, less than 0.1 µM against p110δ/p85α, less than 0.1 µM at p110γ and 0.1 to 1 µM at p110β/p85α. This compound yielded an EC50 in the data set with Balb/c splenic B cells of less than 0.1 µM.

Turning to `CCN(CC)c1nc2ccccc2cc1Cn1nc(-c2cc(O)cc(F)c2)c2c(N)ncnc21` [Compound 68], the IC50 is more than 1 µM at p110α/p85α, less than 0.1 µM against p110δ/p85α, 0.1 to 1 µM against p110γ and 0.1 to 1 µM at p110β/p85α. The compound also came in with an EC50 with Balb/c splenic B cells of less than 0.1 µM.
